Here are results for ten compounds from publication PMC12491715 (Acta Pharmaceutica Sinica. B, 2025).

A short description of series [1]: Aqueous stability (UPLC). The series is classed as physicochemical. The following applies: for t1/2 in aqueous solution / k: PBS:EtOH = 80:20, 10 mmol/L; for k: pseudo-first order; for half-life: buffer, PBS:EtOH = 80:20, calculated half-lives only approximates, read-out: t1/2 in aqueous solution (converted). On the procedure:
For the aqueous stability determination, UPLC analyses were performed as described under Chemistry–General Information. The method used a Waters Acquity UPLC® HSS C18 SB column (2.1 mm× 50 mm, 1.8 μm) thermostated at 40 °C, with: injection volume, 5 μL; flow rate, 0.4 mL/min; detector λ, 220 nm; mobile phase A: 0.1% TFA (v/v) in MilliQ water; mobile phase B: MeCN. Gradient: 0–5 min, 20%–100% B; 5–6 min, 20% B.
Compound stock solutions (100 mmol/L) were prepared in absolute EtOH, while the internal standard (caffeine) was dissolved in PBS (0.1 mg/mL). The aqueous stability solutions were prepared by mixing 1200 μL PBS with internal standard, 150 μL absolute EtOH, and 150 μL compound stock solution in a HPLC vial to give 10 mmol/L compound concentration in PBS/EtOH = 80:20, which was injected immediately and then at hourly intervals for 48 h. The analyte AUCs were normalized on internal standard AUCs and compared with the timepoint zero. For the rate calculation, pseudo-first order kinetics were assumed.
For investigation of compound 8 stability in an aqueous medium, its stock solution (10,000 mg/L) was prepared in EtOH. 15 μL of the stock solution was mixed with 60 μL of caffeine (2500 mg/L in EtOH) and 1425 μL of the respective aqueous solution/buffer to achieve final concentration of 100 mg/L with 5% ethanol content. The UPLC analysis was carried as described above.

The target of series [2] is T1, hBChE (Homo sapiens, UniProt P06276). The series is described as follows: ChE IC50 determination, method of Ellman, hBChE. The series is classed as biochemical. The settings on record: for IC50 / remaining activity at 100 µM: after 5 min preincubation; for IC50: read-out: hBChE IC50±SD; for hBChE time-dependency observed: Yes/No: pre-incubation time varied; for ChE inhibition of the leaving groups: ChEs (hBChE and hAChE); for remaining activity at 100 µM: residual activity at 100 μmol/L, read-out: hBChE RA±SD (residual activity). On the procedure:
(§1) The inhibitory potencies of the compounds against the ChEs were determined using the method of Ellman following the procedure described previously. Briefly, compound stock solutions in DMSO were incubated with Ellman’s reagent and ChEs (final concentrations: 370 μmol/L Ellman’s reagent, approximately 1 nmol/L or 50 pmol/L hBChE or hAChE, respectively) in 0.1 mol/L sodium phosphate pH 8.0 for 5 min at 20 °C. For time-dependency measurements, the pre-incubation time was varied (1, 5, 15, 30 or 60 min). The reactions were started by the addition of the substrate (final concentration, 500 μmol/L butyrylthiocholine iodide or acetylthiocholine iodide for hBChE and hAChE, respectively). The final content of DMSO was always 1%. The increase in absorbance at 412 nm was monitored for 2 min using a 96-well microplate reader (Synergy HT, BioTek Instruments, VT, USA). The initial velocities in the presence (vi) and absence (v0) of the test compounds were calculated. The inhibitory potencies were expressed as the residual activities, according to Eq. (1):(1) RA = vi / v0
(§2) For IC50 determinations, at least seven different concentrations for each compound were used. The IC50 values were obtained by plotting the residual ChE activities against the applied inhibitor concentrations, with the experimental data fitted to a four-parameter logistic function (GraphPad Prism 9.4). Tacrine and donepezil were used as positive controls.
Background: Ellman's reagent forms a yellow product with free thiols.

Series [3] has as its target hAChE (Homo sapiens, UniProt P22303). The series is described as follows: ChE IC50 determination, method of Ellman, hAChE. It is filed as biochemical. The following applies: for IC50 / remaining activity at 100 µM: after 5 min preincubation; for IC50: read-out: hAChE IC50±SD; for hAChE time-dependency observed: Yes/No: pre-incubation time varied; for remaining activity at 100 µM: residual activity at 100 μmol/L, read-out: hAChE RA±SD (residual activity). How it is done: as §1, §2

The subject of series [4] is SH-SY5Y cells. The series is described as follows: Neuroprotection assay against Aβ1–42, 7-AAD flow cytometry. The series is classed as cell-based, human. The following applies: 5 μmol/L compound, 5 μmol/L fibrillar Aβ1–42, 48 h. How it is done:
(§3) Cell culture and treatments The human neuroblastoma SH-SY5Y cell line was purchased from American Type Culture Collection (Manassas, VA, USA). Cells were cultured in Advanced Dulbecco’s modified Eagle’s medium (Gibco, Thermo Fisher Scientific, Waltham, MA, USA) supplemented with 10% fetal bovine serum (FBS, Gibco), 2 mmol/L L-glutamine, 50 U/mL penicillin and 50 μg/mL streptomycin (Sigma, St. Louis, MO, USA) in a humidified atmosphere of 95% air and 5% CO2 at 37 °C, and grown to 80% confluence. Prior to cell treatment, complete medium was replaced with serum-reduced medium (i.e., with 2% FBS). Compounds were prepared as a stock solution of 50 mmol/L in DMSO.
Neuroprotection assay The neuroprotective effect of compounds on cytotoxic effect of Aβ1–42 was determined with the fluorescent intercalator 7-aminoactinomycin D (7-AAD) assessed by flow cytometry. Prior to cell treatment, the peptide Aβ1–42 (Merck Millipore, Darmstadt, Germany) was dissolved in DMSO at a concentration of 1 mmol/L and was incubated at 100 μmol/L in 1 mol/L HCl at 37 °C for 24 h to induce Aβ aggregation. […] Cells were then analysed for cytotoxicity by flow cytometry on Attune NxT flow cytometer (Thermo Fisher Scientific). The percentage of 7AAD positive (7AADpos) cells was evaluated using FlowJo software (FlowJo, LLC., Ashland, OR, USA).

The subject of series [5] is caspase-3 activity in SH-SY5Y cells. The series is described as follows: Caspase-3 activity in lysates of Aβ1–42-treated cells. The series is classed as cell-based, human. The settings on record: 5 μmol/L compound, 5 μmol/L fibrillar Aβ1–42, 24 h. How it is done:
as §3
Caspase-3 activity and Western blot analysis The activity of caspases-3 was determined in total cell lysates of the SH-SY5Y cells treated as described. […] Following cell treatment for 24 h, cell lysates were prepared, and the caspase-3 activity was assessed using the fluorescent peptide substrate N-acetyl-L-α-aspartyl-L-α-glutamyl-L-valyl-N-[2-oxo-4-(trifluoromethyl)-2H-1-benzopyran-7-yl]-L-α-asparagine (Ac-DEVD-AFC; Bachem). […] Immediately after the addition of the substrate, fluorescence was monitored continuously for 30 min at an excitation wavelength of 405 nm and an emission wavelength of 535 nm using a Tecan Safire[2] fluorescence microplate reader. […]

The target of series [6] is T1, hBChE. The series is described as follows: hBChE binding kinetics: carbamoylation and decarbamoylation, initial velocity measurements. The series is classed as biochemical. On the procedure:
The progress curves for the time courses of product formation for the hydrolysis of butyrylthiocholine iodide were measured on an Agilent Cary 3500 UV–VIS spectrophotometer with Compact Peltier (thermostated at 25 °C) at 412 nm using a 0.6 mL cuvette (optical path–0.5 cm). 30 mmol/L Tris buffer pH 7.0 with 1 mg/mL BSA and 0.02% NaN3 was used and all dilutions were done in glass vessels (note: dilute hBChE solutions rapidly lose activity, presumably due to adsorption to plastic, preventing meaningful decarbamoylation assays. In our hands, under the above conditions only, the diluted and stock solutions of hBChE were stable for at least a month at room temperature.). Total volume in the cuvette was always 500 μL, and enzyme solutions that gave upon dilution v0 = (dA/dt) ≈ 0.5 (for carbamoylation) and ≈ 1 for (for decarbamoylation) were used. For carbamoylation experiments, 0.5–1 μL of enzyme stock, 5 μL of compound solution, and 484 μL of buffer were preincubated for the specified time, then 10 μL of the mixture of 25 mmol/L Ellman’s reagent (DTNB) and 20 mmol/L butyrylthiocholine (large excess to prevent substrate depletion) were added, quickly mixed, and measurement started. […] The data analysis followed the literature[63]^,[98].

SMILES strings stand for the structures.

T1 sequence (P06276 29-602): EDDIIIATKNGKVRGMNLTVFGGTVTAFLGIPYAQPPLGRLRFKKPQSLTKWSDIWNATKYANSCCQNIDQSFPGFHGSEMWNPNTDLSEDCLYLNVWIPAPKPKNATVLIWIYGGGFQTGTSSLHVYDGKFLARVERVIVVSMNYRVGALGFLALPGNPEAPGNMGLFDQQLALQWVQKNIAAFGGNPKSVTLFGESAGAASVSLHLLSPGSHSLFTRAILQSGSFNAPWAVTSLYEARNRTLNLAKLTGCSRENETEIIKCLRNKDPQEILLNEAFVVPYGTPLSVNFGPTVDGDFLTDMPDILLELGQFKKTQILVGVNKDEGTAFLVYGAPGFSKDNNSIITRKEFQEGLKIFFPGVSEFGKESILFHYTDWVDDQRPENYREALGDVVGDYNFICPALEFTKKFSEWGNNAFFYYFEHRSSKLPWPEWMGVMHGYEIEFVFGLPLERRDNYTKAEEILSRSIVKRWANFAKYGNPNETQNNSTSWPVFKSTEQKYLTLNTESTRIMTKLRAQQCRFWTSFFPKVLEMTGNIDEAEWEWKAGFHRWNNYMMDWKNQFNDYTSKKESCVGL
Chain of hAChE (P22303 32-614): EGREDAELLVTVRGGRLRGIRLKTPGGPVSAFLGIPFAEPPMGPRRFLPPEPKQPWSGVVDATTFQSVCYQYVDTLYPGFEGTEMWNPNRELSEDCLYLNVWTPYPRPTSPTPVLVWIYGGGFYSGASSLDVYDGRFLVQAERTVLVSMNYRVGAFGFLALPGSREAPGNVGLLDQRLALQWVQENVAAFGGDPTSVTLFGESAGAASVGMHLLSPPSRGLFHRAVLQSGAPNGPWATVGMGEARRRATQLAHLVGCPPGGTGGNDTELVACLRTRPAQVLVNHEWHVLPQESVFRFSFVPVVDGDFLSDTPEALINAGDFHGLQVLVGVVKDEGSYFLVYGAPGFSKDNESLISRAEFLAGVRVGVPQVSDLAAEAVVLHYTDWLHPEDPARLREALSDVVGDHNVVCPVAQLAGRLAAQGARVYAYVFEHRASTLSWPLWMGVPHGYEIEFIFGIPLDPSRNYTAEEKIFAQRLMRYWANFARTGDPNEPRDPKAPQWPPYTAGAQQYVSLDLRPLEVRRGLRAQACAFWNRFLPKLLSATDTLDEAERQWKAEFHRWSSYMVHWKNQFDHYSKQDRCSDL

As usually defined, the IC50 is the point on the concentration scale where inhibition reaches its midpoint. Turning to `CCC1(c2cn(C(=O)N(C)C)c[n+]2C)Cc2ccccc2C1.O=S(=O)([O-])C(F)(F)F` [Compound 13, 1-(Dimethylcarbamoyl)-4-(2-ethylindan-2-yl)-3-methyl-1H-imidazol-3-ium trifluoromethanesulfonate], in series [1], the “t1/2 in aqueous solution” value amounted to 0.55 days and the k was 0.05236 h–1. In addition, in series [2], the IC50 stood at 8.4 ± 4.6 nM and the “hBChE time-dependency observed: Yes/No” value is “Yes”. Besides, in series [3], the IC50 worked out at 3190 ± 400 nM and the “hAChE time-dependency observed: Yes/No” value is listed as “Yes”.
The term Ki denotes the equilibrium dissociation constant of an inhibitor or competing ligand from its target. The low end stands for tighter binding, the high end for weaker binding. Consider `CCC1(c2cn(C(=O)N(C)C)cn2)Cc2ccccc2C1` [Compound 6, 4-(2-Ethylindan-2-yl)-N,N-dimethyl-1H-imidazole-1-carboxamide], for which the “t1/2 in aqueous solution” value in series [1] (during 48 h) is reported as “stable”. Also, in series [2], the “selectivity for hBChE over hAChE” value is recorded as 2500 fold, the IC50 was found to be 14 ± 2 nM and the “hBChE time-dependency observed: Yes/No” value is given as “Yes”. In addition, the “7-AAD-positive cells after Aβ1–42 treatment” value in series [4] is listed as “significant reduction”. For the same compound, in series [3], the IC50 was 32800 nM and the “hAChE time-dependency observed: Yes/No” value is “Yes”. The “caspase-3 activity after Aβ1–42 treatment” value in series [5] is on record as “significant reduction”. The same compound yielded a Ki in series [6] of 116 ± 3 nM. Also, in series [6] (25 °C), the “kcarb, carbamoylation” value is reported as 9.0±2.5 min^–1; the “kdecarb, decarbamoylation” value is on record as 3.59±0.28 ×10^–2 h^–1; the “t1/2, decarbamoylation” value was 0.804 ± 0.0625 days; the “ΔG25°C‡, carbamoylation” value is 18.6 ± 0.2 kcal/mol.
Consider `CCC1(c2cnn(C(=O)N(C)C)n2)Cc2ccccc2C1` [Compound 15, 4-(2-Ethylindan-2-yl)-N,N-dimethyl-2H-1,2,3-triazole-2-carboxamide], for which, in series [1], the k came out at 0.000982 h–1 and the half-life is approximately 29 days. Further, in series [2], the IC50 is 1.9 ± 0.5 nM and the “hBChE time-dependency observed: Yes/No” value is “Yes”. In series [3], the IC50 is 234 ± 46 nM and the “hAChE time-dependency observed: Yes/No” value is “Yes”.
Turning to `CCC1(c2cn[nH]n2)Cc2ccccc2C1` [Compound 14, 4-(2-Ethylindan-2-yl)-2H-1,2,3-triazole], in series [2], the “ChE inhibition of the leaving groups” value is reported as “ineffective” and the remaining activity at 100 µM turned out to be 82%. Further, the remaining activity at 100 µM in series [3] worked out at 85%.
For the compound `CCC1(c2cn(C(=O)N3CCCCC3)cn2)Cc2ccccc2C1` [Compound 9, (4-(2-Ethylindan-2-yl)-1H-imidazol-1-yl)(piperidin-1-yl)methanone], in series [2], the IC50 was 2.5 ± 2 nM and the “hBChE time-dependency observed: Yes/No” value is recorded as “Yes”. Further, in series [3], the IC50 was found to be 7550 ± 2140 nM and the “hAChE time-dependency observed: Yes/No” value is on record as “Yes”.
On to `CCC1(c2cncn2C)Cc2ccccc2C1` [Compound 12, 5-(2-Ethylindan-2-yl)-1-methyl-1H-imidazole], for which, in series [2], the “ChE inhibition of the leaving groups” value is given as “ineffective” and the remaining activity at 100 µM was 67%. Moreover, the remaining activity at 100 µM in series [3] was determined as 74%.
`CCC1(c2nc[nH]n2)Cc2ccccc2C1` [Compound 16, 3-(2-Ethylindan-2-yl)-1H-1,2,4-triazole]: in series [2], the “ChE inhibition of the leaving groups” value is listed as “ineffective” and the remaining activity at 100 µM amounted to 89%. In series [3], the remaining activity at 100 µM was determined as 83%.
On to `CCC1(c2cn(C(=S)N(C)C)cn2)Cc2ccccc2C1` [Compound 11, 4-(2-Ethylindan-2-yl)-N,N-dimethyl-1H-imidazole-1-carbothioamide], for which, in series [2], the “hBChE time-dependency observed: Yes/No” value is “Yes” and the remaining activity at 100 µM was found to be 49%. For the same compound, the remaining activity at 100 µM in series [3] was determined as 69%.
In the case of `CCC1(c2cn(C(=O)N(C)Cc3ccccc3)cn2)Cc2ccccc2C1` [Compound 10, N-Benzyl-4-(2-ethylindan-2-yl)-N-methyl-1H-imidazole-1-carboxamide], in series [2], the IC50 was found to be 53 ± 10 nM and the “hBChE time-dependency observed: Yes/No” value is reported as “Yes”. In series [3], the “hAChE time-dependency observed: Yes/No” value is “Yes” and the remaining activity at 100 µM amounted to 34%.
For the compound `CCC1(c2ncn(C(=O)N(C)C)n2)Cc2ccccc2C1` [Compound 17, 3-(2-Ethylindan-2-yl)-N,N-dimethyl-1H-1,2,4-triazole-1-carboxamide], in series [1], the k is reported as 0.000628 h–1 and the half-life is approximately 46 days. Moreover, in series [2], the IC50 was 5 ± 1.2 nM and the “hBChE time-dependency observed: Yes/No” value is given as “Yes”. For the same compound, in series [3], the IC50 came out at 2930 ± 1280 nM and the “hAChE time-dependency observed: Yes/No” value is “Yes”.
